In article PMC12040184, “Zebrafish Polymerase Theta and human Polymerase Theta: Orthologues with homologous function” (PLOS One, 2025):

Assays:
hPol θ PD = molecular target: T1, hPol θ PD (Homo sapiens, UniProt O75417); experiment: primer extension, denaturing gel; format: biochemical
T1 construct: gene POLQ; pSUMO3 (POLQM1) vector, 6xHis-SUMO tag cut off; E. coli; ~90 kDa
T1 sequence (O75417 1791-2590): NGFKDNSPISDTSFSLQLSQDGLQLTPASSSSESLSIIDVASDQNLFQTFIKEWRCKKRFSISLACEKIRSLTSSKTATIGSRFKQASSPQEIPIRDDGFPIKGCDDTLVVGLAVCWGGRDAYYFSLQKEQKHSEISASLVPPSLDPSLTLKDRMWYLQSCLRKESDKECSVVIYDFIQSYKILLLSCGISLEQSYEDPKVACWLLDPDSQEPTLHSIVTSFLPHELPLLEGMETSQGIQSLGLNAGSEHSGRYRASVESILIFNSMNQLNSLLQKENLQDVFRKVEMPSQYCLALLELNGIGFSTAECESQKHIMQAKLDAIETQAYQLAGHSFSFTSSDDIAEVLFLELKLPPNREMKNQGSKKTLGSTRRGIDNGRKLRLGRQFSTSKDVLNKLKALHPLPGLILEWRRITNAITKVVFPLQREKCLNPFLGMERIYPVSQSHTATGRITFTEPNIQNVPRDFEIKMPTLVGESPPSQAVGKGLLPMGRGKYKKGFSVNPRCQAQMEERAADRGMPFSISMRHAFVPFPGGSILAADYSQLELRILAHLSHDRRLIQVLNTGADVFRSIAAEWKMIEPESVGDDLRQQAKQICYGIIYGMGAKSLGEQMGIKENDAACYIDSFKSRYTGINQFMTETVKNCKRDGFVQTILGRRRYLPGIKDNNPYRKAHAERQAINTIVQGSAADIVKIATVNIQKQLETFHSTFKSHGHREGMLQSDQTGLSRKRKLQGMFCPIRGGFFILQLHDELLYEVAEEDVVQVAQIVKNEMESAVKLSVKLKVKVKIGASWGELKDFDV

[1] = molecular target: T2, zPol theta PD (DNA polymerase theta polymerase domain) (zebrafish, UniProt F1Q4P4 1832-2576); experiment: EMSA; 10 nM DNA, 0-1000 nM protein; binding buffer (composition not given in the material), 1 h at room temperature, 6% native PAGE; settings: protein: recombinant; tags: 6xHis-SUMO, cleaved off (untagged); label: 5'-6-FAM on strand 1 (25-mer primer); primer-template, 22 bp; 5' overhang 18 nt on template, 3 nt unpaired 5' TTT on primer
T2 sequence: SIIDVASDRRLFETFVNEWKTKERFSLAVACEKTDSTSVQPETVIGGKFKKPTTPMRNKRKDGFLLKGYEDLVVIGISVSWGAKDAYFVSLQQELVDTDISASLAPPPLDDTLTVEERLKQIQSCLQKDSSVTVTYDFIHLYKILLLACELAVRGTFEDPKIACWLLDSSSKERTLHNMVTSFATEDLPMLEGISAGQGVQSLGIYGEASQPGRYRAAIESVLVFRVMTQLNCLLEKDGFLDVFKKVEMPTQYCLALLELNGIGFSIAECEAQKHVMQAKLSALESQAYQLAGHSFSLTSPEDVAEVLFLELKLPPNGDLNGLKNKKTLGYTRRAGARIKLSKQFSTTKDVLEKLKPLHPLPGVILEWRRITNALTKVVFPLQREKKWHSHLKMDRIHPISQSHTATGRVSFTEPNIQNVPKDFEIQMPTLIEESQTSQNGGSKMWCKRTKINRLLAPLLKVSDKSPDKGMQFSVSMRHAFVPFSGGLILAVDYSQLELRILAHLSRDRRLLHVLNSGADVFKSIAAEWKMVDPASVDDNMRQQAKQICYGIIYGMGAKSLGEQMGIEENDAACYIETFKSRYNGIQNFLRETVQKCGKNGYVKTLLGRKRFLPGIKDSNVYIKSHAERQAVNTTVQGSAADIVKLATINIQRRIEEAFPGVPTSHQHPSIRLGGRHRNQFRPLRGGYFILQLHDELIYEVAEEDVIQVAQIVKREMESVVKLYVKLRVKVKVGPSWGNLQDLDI

Molecule: Nc1ncnc2c1ncn2[C@H]1C[C@H](O)[C@@H](COP(=O)(O)OP(=O)(O)OP(=O)(O)O)O1 [dATP]
- primer extension, denaturing gel (hPol θ PD; CPD (T-T dimer) 24/33 DNA, 10 mM MgCl2 or MnCl2, pH 8.0, 37 °C, single turnover): Both enzymes were able to readily insert opposite a T-T dimer

Molecule: Nc1ccn([C@H]2C[C@H](O)[C@@H](COP(=O)(O)OP(=O)(O)OP(=O)(O)O)O2)c(=O)n1 [dCTP]
- primer extension, denaturing gel (hPol θ PD; 25/40 dsDNA, templating G, MgCl2 or MnCl2, pH 8.0, 37 °C, steady state): Both enzymes were able to incorporate single nucleotides, correct and incorrect as well

B1: 25/40 dsDNA undamaged (dsDNA)
DNA 1: TTTGCCTTGACCATGTAACAGAGAG
DNA 2: TCTCTTCTCTCACTCACGCTCTCTGTTACATGGTCAAGGC
- Kd [1]: 19.8 ± 3.1 nM
